According to patent US9365522B2, “Pyrazole amide derivative” (AMGEN INC., priority 2015, dated 2016):

Target: T1, human RORγ-LBD (Homo sapiens, UniProt P51449)
T1 construct: made in house; host or cells: E. coli (BL-21)
T1 sequence (P51449 262-518): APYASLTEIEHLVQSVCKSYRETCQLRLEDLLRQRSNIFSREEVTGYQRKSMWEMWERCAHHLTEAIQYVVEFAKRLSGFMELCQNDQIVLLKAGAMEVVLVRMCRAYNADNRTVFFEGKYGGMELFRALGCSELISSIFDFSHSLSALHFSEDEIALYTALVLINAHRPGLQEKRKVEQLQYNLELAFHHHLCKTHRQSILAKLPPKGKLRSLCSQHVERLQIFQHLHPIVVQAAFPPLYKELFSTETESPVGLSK
Experiment: ROR gamma coactivator peptide recruitment Alphascreen assay (RORγ-LBD binding to GRIP1 coactivator peptide)
Format: biochemical
Conditions: 5 nM human RORγ-LBD, 30 nM 7-β-hydroxycholesterol, 50 nM biotinylated GRIP1 coactivator peptide, overnight incubation at room temperature; read-out: result (pIC50, RORγ coactivator peptide recruitment Alphascreen assay) (converted)
Procedure, shortened: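 His/Flag-tagged human RORγ-LBD (aa 262-518, E. coli-expressed, 5 nM) with agonist 7-β-hydroxycholesterol (30 nM) and biotinylated GRIP1 LXXLL peptide (50 nM) in HEPES pH 7.4 buffer, 2.5% DMSO. Compound 1-in-2 dilutions; Alphascreen bead signal read after overnight incubation at room temperature; pIC50 calculated.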

Going from `C[C@H]1C[C@H](n2ncc(C(=O)N(CC(=O)c3c(Cl)cncc3Cl)CC(C)(C)C)c2C(F)(F)F)CC[C@H]1C(=O)O` [Example 738] to `C[C@@H]1C[C@@H](n2ncc(C(=O)N(CC(=O)c3c(Cl)cncc3Cl)CC(C)(C)C)c2C(F)(F)F)CC[C@@H]1C(=O)O` [Example 739], the IC50 falls from 13.5 nM to 5.75 nM (2.3-fold).

Compared with `Cc1cc(Cl)c(C(=O)CN(CC(C)(C)C)C(=O)c2cnn([C@H]3CC[C@H](CC(=O)O)CC3)c2C(F)(F)F)c(Cl)n1` [Example 740, (trans-4-(4-((2-(2,4-dichloro-6-methyl-3-pyridinyl)-2-oxoethyl)(2,2-dimethylpropyl)carbamoyl)-5-(trifluoromethyl)-1H-pyrazol-1-yl)cyclohexyl)acetic acid], `Cc1cc(Cl)c(C(=O)CN(Cc2cc(F)cc(F)c2)C(=O)c2cnn([C@H]3CC[C@@H](C(=O)O)CC3)c2C(F)(F)F)c(Cl)n1` [Example 761, cis-4-(4-((2-(2,4-dichloro-6-methyl-3-pyridinyl)-2-oxoethyl)(3,5-difluorobenzyl)carbamoyl)-5-(trifluoromethyl)-1H-pyrazol-1-yl)cyclohexanecarboxylic acid] is 1.8-fold lower in IC50: 14.5 nM for the first, 7.94 nM for the second.

Compared with `CCC1(CN(CC(=O)c2c(Cl)cncc2Cl)C(=O)c2cnn([C@H]3CC[C@](C)(C(=O)O)CC3)c2C(F)(F)F)CCC1` [Example 742, trans-4-(4-((2-(3,5-dichloro-4-pyridinyl)-2-oxoethyl)((1-ethylcyclobutyl)methyl)carbamoyl)-5-(trifluoromethyl)-1H-pyrazol-1-yl)-1-methylcyclohexanecarboxylic acid], `CCC1(CN(CC(=O)c2c(Cl)cc(C)cc2Cl)C(=O)c2cnn([C@H]3CC[C@](C)(C(=O)O)CC3)c2C(F)(F)F)CCC1` [Example 744, trans-4-(4-((2-(2,6-dichloro-4-methylphenyl)-2-oxoethyl)((1-ethylcyclobutyl)methyl)carbamoyl)-5-(trifluoromethyl)-1H-pyrazol-1-yl)-1-methylcyclohexanecarboxylic acid] is 4.5-fold lower in IC50: 2.63 nM for the first, 0.589 nM for the second.

First: CC1(C)C[C@H]1CN(CC(=O)c1c(Cl)cncc1Cl)C(=O)c1cnn([C@H]2CC[C@](C)(C(=O)O)CC2)c1C(F)(F)F [Example 743, trans-4-(4-((2-(3,5-dichloro-4-pyridinyl)-2-oxoethyl)(((1S)-2,2-dimethylcyclopropyl)methyl)carbamoyl)-5-(trifluoromethyl)-1H-pyrazol-1-yl)-1-methylcyclohexanecarboxylic acid]
Second: Cc1cc(Cl)c(C(=O)CN(C[C@@H]2CC2(C)C)C(=O)c2cnn([C@H]3CC[C@](C)(C(=O)O)CC3)c2C(F)(F)F)c(Cl)c1 [Example 745, trans-4-(4-((2-(2,6-dichloro-4-methylphenyl)-2-oxoethyl)(((1R)-2,2-dimethylcyclopropyl)methyl)carbamoyl)-5-(trifluoromethyl)-1H-pyrazol-1-yl)-1-methylcyclohexanecarboxylic acid]
The IC50 of the first is 2.2-fold higher: 2.24 nM for the first, 1 nM for the second.

Compared with `CC(C)[C@@H]1C[C@H](Cc2c(Cl)cncc2Cl)N(C(=O)c2cnn([C@H]3CC[C@](C)(C(=O)O)CC3)c2C(F)(F)F)C1` [Example 746, trans-4-(4-(((2R,4S)-2-((3,5-dichloro-4-pyridinyl)methyl)-4-(2-propanyl)-1-pyrrolidinyl)carbonyl)-5-(trifluoromethyl)-1H-pyrazol-1-yl)-1-methylcyclohexanecarboxylic acid], `CC(C)[C@H]1C[C@H](Cc2c(Cl)cncc2Cl)N(C(=O)c2cnn([C@H]3CC[C@](C)(C(=O)O)CC3)c2C(F)(F)F)C1` [Example 747, trans-4-(4-(((2R,4R)-2-((3,5-dichloro-4-pyridinyl)methyl)-4-(2-propanyl)-1-pyrrolidinyl)carbonyl)-5-(trifluoromethyl)-1H-pyrazol-1-yl)-1-methylcyclohexanecarboxylic acid] is 8.1-fold lower in IC50: 32.4 nM for the first, 3.98 nM for the second.

Going from `C[C@]1(C(=O)O)CC[C@H](n2ncc(C(=O)N(CC(=O)c3c(Cl)cncc3Cl)[C@H]3CCC34CCC4)c2C(F)(F)F)CC1` [Example 748, trans-4-(4-((2-(3,5-dichloro-4-pyridinyl)-2-oxoethyl)((1S)-spiro[3.3]hept-1-yl)carbamoyl)-5-(trifluoromethyl)-1H-pyrazol-1-yl)-1-methylcyclohexanecarboxylic acid] to `C[C@]1(C(=O)O)CC[C@H](n2ncc(C(=O)N(CC(=O)c3c(Cl)cncc3Cl)[C@@H]3CCC34CCC4)c2C(F)(F)F)CC1` [Example 749, trans-4-(4-((2-(3,5-dichloro-4-pyridinyl)-2-oxoethyl)((1R)-spiro[3.3]hept-1-yl)carbamoyl)-5-(trifluoromethyl)-1H-pyrazol-1-yl)-1-methylcyclohexanecarboxylic acid], the IC50 rises from 3.39 nM to 60.3 nM (18-fold).

Going from `Cc1cc(Cl)c(C(=O)CN(C(=O)c2cnn([C@H]3CC[C@H](CC(=O)O)CC3)c2C(F)(F)F)[C@H]2C[C@@H]3[C@H](C2)C3(C)C)c(Cl)c1` [Example 750, (trans-4-(4-((2-(2,6-dichloro-4-methylphenyl)-2-oxoethyl)((1R,3r,5S)-6,6-dimethylbicyclo[3.1.0]hex-3-yl)carbamoyl)-5-(trifluoromethyl)-1H-pyrazol-1-yl)cyclohexyl)acetic acid] to `Cc1ncc(Cl)c(C(=O)CN(C(=O)c2cnn([C@H]3CC[C@](C)(C(=O)O)CC3)c2C(F)(F)F)[C@H]2C[C@@H]3[C@H](C2)C3(C)C)c1Cl` [Example 758, trans-4-(4-((2-(3,5-dichloro-2-methyl-3-pyridinyl)-2-oxoethyl)((1R,3r,5S)-6,6-dimethylbicyclo[3.1.0]hex-3-yl)carbamoyl)-5-(trifluoromethyl)-1H-pyrazol-1-yl)-1-methylcyclohexanecarboxylic acid], the IC50 rises from 1.58 nM to 3.55 nM (2.2-fold).

Compared with `Cc1cc(Cl)c(C(=O)CN(CC2(F)CCCC2)C(=O)c2cnn([C@H]3CC[C@](C)(C(=O)O)CC3)c2C(F)(F)F)c(Cl)n1` [Example 751, trans-4-(4-((2-(2,4-dichloro-6-methyl-3-pyridinyl)-2-oxoethyl)((1-fluorocyclopentyl)methyl)carbamoyl)-5-(trifluoromethyl)-1H-pyrazol-1-yl)-1-methylcyclohexanecarboxylic acid], `Cc1cc(Cl)c(C(=O)CN(Cc2cc(F)cc(F)c2)C(=O)c2cnn([C@H]3CC[C@@](C)(C(=O)O)CC3)c2C(F)(F)F)c(Cl)n1` [Example 762, trans-4-(4-((2-(2,4-dichloro-6-methyl-3-pyridinyl)-2-oxoethyl)(3,5-difluorobenzyl)carbamoyl)-5-(trifluoromethyl)-1H-pyrazol-1-yl)-1-methylcyclohexanecarboxylic acid] is 1.7-fold lower in IC50: 9.33 nM for the first, 5.37 nM for the second.

`CC(C)CCN(CC(=O)c1c(Cl)cccc1Cl)C(=O)c1cnn([C@H]2CC[C@](C)(C(=O)O)CC2)c1C(F)(F)F` [Example 752, trans-4-(4-((2-(2,6-dichlorophenyl)-2-oxoethyl)(3-methylbutyl)carbamoyl)-5-(trifluoromethyl)-1H-pyrazol-1-yl)-1-methylcyclohexanecarboxylic acid] and `CC1(CN(CC(=O)c2c(Cl)cccc2Cl)C(=O)c2cnn([C@H]3CC[C@](C)(C(=O)O)CC3)c2C(F)(F)F)CC1` [Example 759, trans-4-(4-((2-(2,6-dichlorophenyl)-2-oxoethyl)((1-methylcyclopropyl)methyl)carbamoyl)-5-(trifluoromethyl)-1H-pyrazol-1-yl)-1-methylcyclohexanecarboxylic acid] are within 1.5-fold of each other in IC50: 4.79 nM for the first, 3.72 nM for the second.

First: COc1ncc(Cl)c(C(=O)CN(CC(C)(C)C)C(=O)c2cnn([C@H]3CC[C@](C)(C(=O)O)CC3)c2C(F)(F)F)c1Cl [Example 753, trans-4-(4-((2-(3,5-dichloro-2-methoxy-4-pyridinyl)-2-oxoethyl)(2,2-dimethylpropyl)carbamoyl)-5-(trifluoromethyl)-1H-pyrazol-1-yl)-1-methylcyclohexanecarboxylic acid]
Second: CC1(CN(CC(=O)c2c(Cl)cccc2Cl)C(=O)c2cnn([C@H]3CC[C@](C)(C(=O)O)CC3)c2C(F)(F)F)CCC1 [Example 760, trans-4-(4-((2-(2,6-dichlorophenyl)-2-oxoethyl)((1-methylcyclobutyl)methyl)carbamoyl)-5-(trifluoromethyl)-1H-pyrazol-1-yl)-1-methylcyclohexanecarboxylic acid]
The IC50 of the first is 10-fold higher: 25.1 nM for the first, 2.4 nM for the second.

`O=C(O)C[C@H]1CC[C@H](n2ncc(C(=O)N(CC(=O)c3c(Cl)cncc3Cl)Cc3cc(F)cc(F)c3)c2C(F)(F)F)CC1` [Example 755, (trans-4-(4-((2-(3,5-dichloro-4-pyridinyl)-2-oxoethyl)(3,5-difluorobenzyl)carbamoyl)-5-(trifluoromethyl)-1H-pyrazol-1-yl)cyclohexyl)acetic acid] and `C[C@@H]1C[C@@H](n2ncc(C(=O)N(CC(=O)c3c(Cl)cncc3Cl)CC3CC(C)(C)C3)c2C(F)(F)F)CC[C@@H]1C(=O)O` [Example 756, (1S,2R,4S)-4-(4-((2-(3,5-dichloro-4-pyridinyl)-2-oxoethyl)((3,3-dimethylcyclobutyl)methyl)carbamoyl)-5-(trifluoromethyl)-1H-pyrazol-1-yl)-2-methylcyclohexanecarboxylic acid] are within 1.5-fold of each other in IC50: 2.34 nM for the first, 2.57 nM for the second.

For `Cc1cc(C)c(C(=O)CN(C(=O)c2cnn([C@H]3CC[C@](C)(C(=O)O)CC3)c2C(F)(F)F)[C@H]2C[C@@H]3[C@H](C2)C3(C)C)c(Cl)n1` [Example 757, trans-4-(4-((2-(2-chloro-4,6-dimethyl-3-pyridinyl)-2-oxoethyl)((1R,3r,5S)-6,6-dimethylbicyclo[3.1.0]hex-3-yl)carbamoyl)-5-(trifluoromethyl)-1H-pyrazol-1-yl)-1-methylcyclohexanecarboxylic acid], the IC50 was 7.94 nM.
